These results are taken from patent publication US20260070945A1, “MACROCYCLIC IMMUNOMODULATORS” (Bristol-Myers Squibb Company, priority 2022, published 2026).

The term IC50 denotes the concentration at which inhibition is half-maximal.

Each structure is given as a SMILES string. *1 amine or outer side, *2 acyl side, *3 side chain or, on linkers, in order; H or OH if unused. Where a SMILES comes first, the peptide text is derived from it. Bridges are numbered along the chain shown (N, C = ends). [ ]: non-standard residue; d: D form. The star is where a group is joined. ξ: configuration not given here. Phe(3-CF3) = N[C@@H](Cc1cccc(C(F)(F)F)c1)C(=O)O; Phe(4-COOH) = N[C@@H](Cc1ccc(C(=O)O)cc1)C(=O)O; Bip = N[C@@H](Cc1ccc(-c2ccccc2)cc1)C(=O)O; Phe(3-Me) = Cc1cccc(C[C@H](N)C(=O)O)c1; γGlu = O=C(O)[C@H](CCC(=O)[*:2])N[*:1]; NH(CH2)12COOH = O=C(O)CCCCCCCCCCCCN*; Val(3-OH) = CC(C)(O)[C@H](N)C(=O)O; hArg = N=C(N)NCCCC[C@H](N)C(=O)O; hhGln = NC(=O)CCCC[C@H](N)C(=O)O; 4Pal = N[C@@H](Cc1ccncc1)C(=O)O; Cha = N[C@@H](CC1CCCCC1)C(=O)O; Cit = NC(=O)NCCC[C@H](N)C(=O)O; Ile(3ξ) = CCC(C)[C@H](N)C(=O)O; Thr(3ξ) = CC(O)[C@H](N)C(=O)O; Carboxymethyl = O=C(O)C*; NMeA = CN[C@@H](C)C(=O)O; Orn = NCCC[C@H](N)C(=O)O; dDap = NC[C@@H](N)C(=O)O; Aun = NCCCCCCCCCCC(=O)O; Dab = NCC[C@H](N)C(=O)O; Dap = NC[C@H](N)C(=O)O; AEEA = NCCOCCOCC(=O)O

For the first assay, the target named is T1, PD-1/PD-L1 interaction (PE-labeled human PD-L1-Ig binding to Jurkat cell line over-expressing human PD-1) (Homo sapiens, UniProt Q15116).
T1 construct: expressed in transfected cells; host or cells: Jurkat
T1 sequence (Q15116 25-288): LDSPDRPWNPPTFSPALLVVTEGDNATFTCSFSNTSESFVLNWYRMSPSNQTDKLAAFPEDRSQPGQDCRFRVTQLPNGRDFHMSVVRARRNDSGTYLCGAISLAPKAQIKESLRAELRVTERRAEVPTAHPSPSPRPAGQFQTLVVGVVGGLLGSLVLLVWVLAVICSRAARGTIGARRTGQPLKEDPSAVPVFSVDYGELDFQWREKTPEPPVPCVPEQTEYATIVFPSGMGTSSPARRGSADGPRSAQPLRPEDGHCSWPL
Description: Jurkat-PD-1 Cell Binding High-Content Screening Assay (CBA). The conditions noted are these: Jurkat-hPD-1 cells, PE-labeled PD-L1-Ig 20 nM final; read-out: Jurkat HPD1 PDL1 IC50. The procedure, abridged: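 Jurkat-hPD-1 cells (8×10^3/well) in DMEM with 10% fetal calf serum were preincubated with compound for 2 h at 37 °C. PE-labeled PD-L1-Ig was then added at 20 nM final for 1 h. Cells were fixed in paraformaldehyde with Hoechst 33342, washed and imaged by high-content imaging.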
Take `CC(C)C[C@H]1NC(=O)[C@H](C)N(C)C(=O)[C@H](Cc2ccc(OCC(=O)O)cc2)NC(=O)[C@H](Cc2ccc(-c3ccccc3)cc2)NC(=O)[C@H](Cc2ccc(OCC(=O)O)cc2)NC(=O)[C@H](Cc2c[nH]c3ccccc23)NC(=O)[C@H](CC(=O)O)NC(=O)[C@H](Cc2ccncc2)NC(=O)[C@H](Cc2ccc(OCC(=O)O)cc2)NC(=O)CSC[C@@H](C(=O)N[C@@H](CCN)C(=O)NCCOCCOCC(=O)NCCCCCCCCCCC(=O)O)NC(=O)[C@H](CCCN)NC(=O)[C@H](C(C)C)NC(=O)[C@H](CC2CCCCC2)NC(=O)[C@H](CC(N)=O)NC1=O` [Example 1380] ({CH2CO}-Y(Carboxymethyl)[4Pal]DWY(Carboxymethyl)[Bip]Y(Carboxymethyl)[NMeA][dL]N[Cha]V[Orn]C[Dab][AEEA][Aun]-OH; thioether N-14): the IC50 was 119 nM. Regarding `Cc1cccc(C[C@@H]2NC(=O)[C@H](CC(=O)O)NC(=O)[C@H](Cc3ccc(OCC(=O)O)cc3)NC(=O)[C@H](C(C)O)NC(=O)CSC[C@@H](C(=O)N[C@@H](CCN)C(=O)NCCCCCCCCCCC(=O)O)NC(=O)[C@H](C(C)O)NC(=O)[C@H](C(C)C)NC(=O)[C@H](CC3CCCCC3)NC(=O)[C@H](CCN)NC(=O)[C@@H](CC(C)C)NC(=O)[C@H](C)N(C)C(=O)[C@H](CCC(=O)O)NC(=O)[C@H](Cc3ccc(-c4ccccc4)cc3)NC(=O)[C@H](CCC(=O)O)NC2=O)c1` (stereo partly drawn) [Example 2303] ({CH2CO}-[Thr(3ξ)]Y(Carboxymethyl)D[Phe(3-Me)]E[Bip]E[NMeA][dL][Dab][Cha]V[Thr(3ξ)]C[Dab][Aun]-OH; thioether N-14), the IC50 is 46 nM. For `CCC(C)[C@@H]1NC(=O)[C@H](Cc2ccc(-c3ccccc3)cc2)NC(=O)[C@H](C(C)C)NC(=O)[C@H](Cc2c[nH]c3ccccc23)NC(=O)[C@H](CC(=O)O)NC(=O)[C@H](Cc2ccc(C(=O)O)cc2)NC(=O)[C@H](Cc2ccc(OCC(=O)O)cc2)NC(=O)CSC[C@@H](C(=O)N[C@@H](CCCN)C(=O)NCCOCCOCC(=O)NCCCCCCCCCCC(=O)O)NC(=O)[C@H](C(C)O)NC(=O)[C@H](C(C)C)NC(=O)[C@H](CC2CCCCC2)NC(=O)[C@H](CCN)NC(=O)[C@@H](CC(C)C)NC(=O)[C@H](C)N(C)C1=O` (stereo partly drawn) [Example 2149] ({CH2CO}-Y(Carboxymethyl)[Phe(4-COOH)]DWV[Bip][Ile(3ξ)][NMeA][dL][Dab][Cha]V[Thr(3ξ)]C[Orn][AEEA][Aun]-OH; thioether N-14), the IC50 was 17.7 nM. On the same count and under the same terms, the result for `CC(=O)NCCCC[C@@H]1NC(=O)[C@H](CC2CCCCC2)NC(=O)[C@H](CCN)NC(=O)[C@@H](CC(C)C)NC(=O)[C@H](C)N(C)C(=O)[C@H](C(C)C)NC(=O)[C@H](Cc2ccc(-c3ccccc3)cc2)NC(=O)[C@H](C(C)C)NC(=O)[C@H](Cc2cccc(C)c2)NC(=O)[C@H](CC(=O)O)NC(=O)[C@H](Cc2ccc(OCC(=O)O)cc2)NC(=O)[C@H](C(C)O)NC(=O)CSC[C@@H](C(=O)N[C@@H](CCN)C(=O)NCCCCCCCCCCC(=O)O)NC(=O)[C@H](CO)NC1=O` (stereo partly drawn) [Example 2300] ({CH2CO}-[Thr(3ξ)]Y(Carboxymethyl)D[Phe(3-Me)]V[Bip]V[NMeA][dL][Dab][Cha]K(Ac)SC[Dab][Aun]-OH; thioether N-14) reads 15.6 nM. The same measure, in the same setting: the result for `CC(C)C[C@@H]1NC(=O)[C@H](Cc2c[nH]c3ccccc23)NC(=O)[C@H](CC(=O)O)NC(=O)[C@H](Cc2c[nH]cn2)NC(=O)[C@H](CCCCNC(=N)N)NC(=O)CSC[C@@H](C(=O)N[C@@H](CCN)C(=O)NCCCCCCCCCCC(=O)O)NC(=O)[C@H](CCCN)NC(=O)[C@H](C(C)C)NC(=O)[C@H](CC2CCCCC2)NC(=O)[C@H](CCN)NC(=O)[C@@H](CC(C)C)NC(=O)[C@H](C)N(C)C(=O)[C@H](C(C)C)NC(=O)[C@H](Cc2ccc(-c3ccccc3)cc2)NC1=O` [Example 2195] ({CH2CO}-[hArg]HDWL[Bip]V[NMeA][dL][Dab][Cha]V[Orn]C[Dab][Aun]-OH; thioether N-14) reads 80.3 nM; that for `CC(=O)NCCCC[C@@H]1NC(=O)[C@H](Cc2ccc(-c3ccccc3)cc2)NC(=O)[C@H](C(C)C)NC(=O)[C@H](Cc2cccc(C)c2)NC(=O)[C@H](CC(=O)O)NC(=O)[C@H](Cc2ccc(C(=O)O)cc2)NC(=O)[C@H](Cc2ccc(OCC(=O)O)cc2)NC(=O)CSC[C@@H](C(=O)NCCOCCOCC(=O)NCCCCCCCCCCC(=O)O)NC(=O)[C@H](C(C)O)NC(=O)[C@H](C(C)C)NC(=O)[C@H](CC2CCCCC2)NC(=O)[C@H](CCN)NC(=O)[C@@H](CC(C)C)NC(=O)[C@H](C)N(C)C1=O` (stereo partly drawn) [Example 2283] ({CH2CO}-Y(Carboxymethyl)[Phe(4-COOH)]D[Phe(3-Me)]V[Bip]K(Ac)[NMeA][dL][Dab][Cha]V[Thr(3ξ)]C[AEEA][Aun]-OH; thioether N-14), 20.5 nM; that for `Cc1cccc(C[C@@H]2NC(=O)[C@H](CC(=O)O)NC(=O)[C@H](Cc3ccc(OCC(=O)O)cc3)NC(=O)[C@H](CN)NC(=O)CSC[C@@H](C(=O)NCCOCCOCC(=O)NCCCCCCCCCCC(=O)O)NC(=O)[C@H](CCCN)NC(=O)[C@H](C(C)C)NC(=O)[C@H](CC3CCCCC3)NC(=O)[C@H](CCN)NC(=O)[C@@H](CC(C)C)NC(=O)[C@H](C)N(C)C(=O)[C@H](Cc3ccc(O)cc3)NC(=O)[C@H](Cc3ccc(-c4ccccc4)cc3)NC(=O)[C@H](Cc3ccc(O)cc3)NC2=O)c1` [Example 1316] ({CH2CO}-[Dap]Y(Carboxymethyl)D[Phe(3-Me)]Y[Bip]Y[NMeA][dL][Dab][Cha]V[Orn]C[AEEA][Aun]-OH; thioether N-14), 97.7 nM.

With `Cc1cccc(C[C@@H]2NC(=O)[C@H](CC(=O)O)NC(=O)[C@H](Cc3ccc(OCC(=O)O)cc3)NC(=O)[C@H](C(C)O)NC(=O)CSC[C@@H](C(=O)N[C@@H](CCN)C(=O)NCCOCCOCC(=O)NCCOCCOCC(=O)NCCCCCCCCCCC(=O)O)NC(=O)[C@H](CCC(=O)O)NC(=O)[C@H](C(C)C)NC(=O)[C@H](CC3CCCCC3)NC(=O)[C@H](CCN)NC(=O)[C@@H](CC(C)C)NC(=O)[C@H](C)N(C)C(=O)[C@H](Cc3ccc(OCC(=O)O)cc3)NC(=O)[C@H](Cc3ccc(-c4ccccc4)cc3)NC(=O)[C@H](Cc3ccc(C(=O)O)cc3)NC2=O)c1` (stereo partly drawn) [Example 2482] ({CH2CO}-[Thr(3ξ)]Y(Carboxymethyl)D[Phe(3-Me)][Phe(4-COOH)][Bip]Y(Carboxymethyl)[NMeA][dL][Dab][Cha]VEC[Dab][AEEA][AEEA][Aun]-OH; thioether N-14), the half-inhibitory concentration (IC50) came to 20.7 nM.

For the molecule `CC(C)C[C@H]1NC(=O)[C@H](C)N(C)C(=O)[C@H](CCCNC(N)=O)NC(=O)[C@H](Cc2ccc(-c3ccccc3)cc2)NC(=O)[C@H](Cc2ccc(C(=O)O)cc2)NC(=O)[C@H](Cc2cccc(C(F)(F)F)c2)NC(=O)[C@H](CC(=O)O)NC(=O)[C@H](Cc2ccc(OCC(=O)O)cc2)NC(=O)[C@H](Cc2ccc(C(=O)O)cc2)NC(=O)CSC[C@@H](C(=O)N[C@@H](CCN)C(=O)NCCOCCOCC(=O)N[C@@H](CCC(=O)NCCOCCOCC(=O)NCCCCCCCCCCCCC(=O)O)C(=O)O)NC(=O)[C@H](CO)NC(=O)[C@H](C(C)(C)O)NC(=O)[C@H](CC2CCCCC2)NC(=O)[C@H](CCN)NC1=O` [Example 1187] ({CH2CO}-[Phe(4-COOH)]Y(Carboxymethyl)D[Phe(3-CF3)][Phe(4-COOH)][Bip][Cit][NMeA][dL][Dab][Cha][Val(3-OH)]SC[Dab][AEEA][γGlu][AEEA]-{NH(CH2)12COOH}; thioether N-14), the IC50 came out at 37.7 nM. Still for that read-out and setting: the value for `CCC(C)[C@@H]1NC(=O)[C@H](Cc2ccc(-c3ccccc3)cc2)NC(=O)[C@H](C(C)C)NC(=O)[C@H](Cc2c[nH]c3ccccc23)NC(=O)[C@H](CC(=O)O)NC(=O)[C@H](Cc2ccc(OCC(=O)O)cc2)NC(=O)[C@H](Cc2ccncc2)NC(=O)CSC[C@@H](C(=O)N[C@H](CN)C(=O)NCCOCCOCC(=O)N[C@@H](CCC(=O)NCCCCCCCCCCC(=O)O)C(=O)O)NC(=O)[C@H](CO)NC(=O)[C@H](C(C)C)NC(=O)[C@H](CC2CCCCC2)NC(=O)[C@H](CC(N)=O)NC(=O)[C@@H](CC(C)C)NC(=O)[C@H](C)N(C)C1=O` (stereo partly drawn) [Example 2067] ({CH2CO}-[4Pal]Y(Carboxymethyl)DWV[Bip][Ile(3ξ)][NMeA][dL]N[Cha]VSC[dDap][AEEA][γGlu][Aun]-OH; thioether N-14) was 35.2 nM.

Turning to `Cc1cccc(C[C@@H]2NC(=O)[C@H](CC(=O)O)NC(=O)[C@H](Cc3ccc(OCC(=O)O)cc3)NC(=O)[C@H](C(C)O)NC(=O)CSC[C@@H](C(=O)NCCOCCOCC(=O)NCCCCCCCCCCC(=O)O)NC(=O)[C@H](C(C)O)NC(=O)[C@H](C(C)C)NC(=O)[C@H](CC3CCCCC3)NC(=O)[C@H](CCN)NC(=O)[C@@H](CC(C)C)NC(=O)[C@H](C)N(C)C(=O)[C@H](Cc3ccc(OCC(=O)O)cc3)NC(=O)[C@H](Cc3ccc(-c4ccccc4)cc3)NC(=O)[C@H](CCCCC(N)=O)NC2=O)c1` (stereo partly drawn) [Example 2345] ({CH2CO}-[Thr(3ξ)]Y(Carboxymethyl)D[Phe(3-Me)][hhGln][Bip]Y(Carboxymethyl)[NMeA][dL][Dab][Cha]V[Thr(3ξ)]C[AEEA][Aun]-OH; thioether N-14), the IC50 was found to be 67.5 nM.

The assay is the same for the next values; noted with them: PE-labeled PD-L1-Ig 20 nM final, Jurkat-hPD-1 cells; read-out: Jurkat HPD1 PDL1 IC50.
Regarding `CCC(C)[C@@H]1NC(=O)[C@H](Cc2ccc(-c3ccccc3)cc2)NC(=O)[C@H](CC(C)C)NC(=O)[C@H](Cc2c[nH]c3ccccc23)NC(=O)[C@H](CC(=O)O)NC(=O)[C@H](Cc2ccc(OCC(=O)O)cc2)NC(=O)[C@H](Cc2ccncc2)NC(=O)CSC[C@@H](C(=O)N[C@@H](CCN)C(=O)NCCOCCOCC(=O)NCCCCCCCCCCC(=O)O)NC(=O)[C@H](CO)NC(=O)[C@H](C(C)(C)O)NC(=O)[C@H](CC2CCCCC2)NC(=O)[C@H](CCN)NC(=O)[C@@H](CC(C)C)NC(=O)[C@H](C)N(C)C1=O` (stereo partly drawn) [Example 2502] ({CH2CO}-[4Pal]Y(Carboxymethyl)DWL[Bip][Ile(3ξ)][NMeA][dL][Dab][Cha][Val(3-OH)]SC[Dab][AEEA][Aun]-OH; thioether N-14), the IC50 is 148 nM.
